Key:
[1] = system: Glo-Response ARE-luc2P HEK293 cell line; experiment: ARE luciferase reporter cell-based assay; details: Homo sapiens, HEK293, 24 h, average of results obtained;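 also: luciferase signal tracks Nrf2 activation of the ARE once compounds disrupt KEAP1-Nrf2 binding, read with One-Glo reagent, DMSO serving as low control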
[2] = biological target: Kelch domain of human KEAP1 (321-624 aa) (Homo sapiens (Human), UniProt Q14145); experiment: KEAP1 KELCH ThermoFluor binding assay; details: KEAP Kelch […], 1,8-ANS, pH 7.0, average of results obtained, read-out: Tf Kd;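 also: Ligand-induced melting temperature shift of E. coli-expressed KEAP1 Kelch protein, Kd estimated from concentration-response curves of ΔTm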
Kelch domain of human KEAP1 (321-624 aa), sequence (Q14145 321-624): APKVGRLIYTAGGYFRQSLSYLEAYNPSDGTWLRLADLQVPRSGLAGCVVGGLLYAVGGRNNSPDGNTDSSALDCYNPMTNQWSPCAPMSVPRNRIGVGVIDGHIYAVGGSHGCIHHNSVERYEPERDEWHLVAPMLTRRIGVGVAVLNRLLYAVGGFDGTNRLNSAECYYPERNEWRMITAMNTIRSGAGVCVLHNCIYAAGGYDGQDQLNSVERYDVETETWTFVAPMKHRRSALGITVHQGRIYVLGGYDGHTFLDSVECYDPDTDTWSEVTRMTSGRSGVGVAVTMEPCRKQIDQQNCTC

Structure (SMILES)	Kd [2] [nM]	EC50 [1] [nM]
Cc1ccc([C@@H](CC(=O)O)c2cc(OC(F)F)c3c(c2)nnn3C)cc1CN1C[C@H]2CCCCN2c2ncccc2S1(=O)=O (single isomer, unassigned) [Example 3, (*R)-3-(7-(Difluoromethoxy)-1-methyl-1H-benzo[d][1,2,3]triazol-5-yl)-3-(3-(((*R)-5,5-dioxido-7,7a,8,9,10,11-hexahydro-6H-dipyrido[2,1-d:2′,3′-f][1,2,5]thiadiazepin-6-yl)methyl)-4-methylphenyl)propanoic Acid]	0.041	35
Cc1ccc([C@H](CC(=O)O)c2cc(OC3CC3)c3c(c2)nnn3C)cc1CN1C[C@H]2CCCN2c2ncccc2S1(=O)=O (single isomer, unassigned) [Example 5, (*S)-3-(7-Cyclopropoxy-1-methyl-1H-benzo[d][1,2,3]triazol-5-yl)-3-(3-(((R)-5,5-dioxido-7a,8,9,10-tetrahydropyrido[2,3-f]pyrrolo[2,1-d][1,2,5]thiadiazepin-6(7H)-yl)methyl)-4-methylphenyl)propanoic Acid]	0.518	110
Cc1ccc([C@@H](CC(=O)O)c2cc(OC3CC3)c3c(c2)nnn3C)cc1CN1C[C@H]2CCCN2c2ncccc2S1(=O)=O (single isomer, unassigned) [Example 6, (*R)-3-(7-Cyclopropoxy-1-methyl-1H-benzo[d][1,2,3]triazol-5-yl)-3-(3-(((R)-5,5-dioxido-7a,8,9,10-tetrahydropyrido[2,3-f]pyrrolo[2,1-d][1,2,5]thiadiazepin-6(7H)-yl)methyl)-4-methylphenyl)propanoic Acid]	0.089	42
Cc1ccc([C@@H](CC(=O)O)c2ccn3c(C(F)(F)F)nnc3c2C)cc1CN1CC2(CC2)Oc2ncccc2S1(=O)=O (single isomer, unassigned) [Example 8, (*R)-3-(3-((1′,1′-dioxidospiro[cyclopropane-1,4′-pyrido[2,3-b][1,4,5]oxathiazepin]-2′(3′H)-yl)methyl)-4-methylphenyl)-3-(8-methyl-3-(trifluoromethyl)-[1,2,4]triazolo[4,3-a]pyridin-7-yl)propanoic Acid]	0.188	660
Cc1ccc([C@H](CC(=O)O)c2ccn3c(C(F)(F)F)nnc3c2C)cc1CN1C[C@@H]2CCCCN2c2ncc(C#N)cc2S1(=O)=O (single isomer, unassigned) [Example 10, (*S)-3-(3-(((*S)-3-Cyano-5,5-dioxido-7,7a,8,9,10,11-hexahydro-6H-dipyrido[2,1-d:2′,3′-f][1,2,5]thiadiazepin-6-yl)methyl)-4-methylphenyl)-3-(8-methyl-3-(trifluoromethyl)-[1,2,4]triazolo[4,3-a]pyridin-7-yl)propanoic Acid]	< 1	5.2
Cc1cnc2c(c1)S(=O)(=O)N(Cc1cc([C@H](c3ccn4c(C(F)(F)F)nnc4c3C)C(C)(C)C(=O)O)ccc1C)CC1(CCOCC1)O2 (single isomer, unassigned) [Example 19, (*R)-2,2-Dimethyl-3-(4-methyl-3-((8′-methyl-1′,1′-dioxido-2,3,5,6-tetrahydrospiro[pyran-4,4′-pyrido[2,3-b][1,4,5]oxathiazepin]-2′(3′H)-yl)methyl)phenyl)-3-(8-methyl-3-(trifluoromethyl)-[1,2,4]triazolo[4,3-a]pyridin-7-yl)propanoic Acid]	1280	789
CCn1nnc2c(C)c([C@H](CC(=O)O)c3ccc(C)c(CN4C[C@H]5CCCN5c5ncccc5S4(=O)=O)c3)ccc21 (single isomer, unassigned) [Example 22, (*R)-3-(3-(((R)-5,5-Dioxido-7a,8,9,10-tetrahydropyrido[2,3-f]pyrrolo[2,1-d][1,2,5]thiadiazepin-6(7H)-yl)methyl)-4-methylphenyl)-3-(1-ethyl-4-methyl-1H-benzo[d][1,2,3]triazol-5-yl)propanoic Acid]	0.081	3.9
Cc1ccc([C@@H](CC(=O)O)c2ccc3c(nnn3C3CC3)c2C)cc1CN1C[C@@H]2COCCN2c2ncccc2S1(=O)=O (single isomer, unassigned) [Example 25, (*R)-3-(1-Cyclopropyl-4-methyl-1H-benzo[d][1,2,3]triazol-5-yl)-3-(3-(((*R)-5,5-dioxido-7a,8,10,11-tetrahydro-[1,4]oxazino[3,4-d]pyrido[2,3-f][1,2,5]thiadiazepin-6(7H)-yl)methyl)-4-methylphenyl)propanoic Acid]	2.12	21
Cc1ccc([C@H](CC(=O)O)c2ccn3c(C(F)(F)F)nnc3c2C)cc1CN1CC2(COC2)Oc2ccccc2S1(=O)=O (single isomer, unassigned) [Example 26, (*S)-3-(3-((1,1-Dioxidospiro[benzo[b][1,4,5]oxathiazepine-4,3′-oxetan]-2(3H)-yl)methyl)-4-methylphenyl)-3-(8-methyl-3-(trifluoromethyl)-[1,2,4]triazolo[4,3-a]pyridin-7-yl)propanoic Acid]	0.174	32
Cc1ccc([C@@H](CC(=O)O)c2ccn3c(C(F)F)nnc3c2C)cc1CN1C[C@@H]2CCCCN2c2ncc(C#N)cc2S1(=O)=O (single isomer, unassigned) [Example 29, (*R)-3-(3-(((*S)-3-Cyano-5,5-dioxido-7,7a,8,9,10,11-hexahydro-6H-dipyrido[2,1-d:2′,3′-f][1,2,5]thiadiazepin-6-yl)methyl)-4-methylphenyl)-3-(3-(difluoromethyl)-8-methyl-[1,2,4]triazolo[4,3-a]pyridin-7-yl)propanoic Acid]	< 1	50.9

Continued, in another order:

Kd [2] [nM]	Structure (SMILES)	EC50 [1] [nM]
0.162	Cc1ccc([C@H](CC(=O)O)c2cc(OC(F)F)c3c(c2)nnn3C)cc1CN1C[C@H]2CCCCN2c2ncccc2S1(=O)=O (single isomer, unassigned) [Example 2, (*S)-3-(7-(Difluoromethoxy)-1-methyl-1H-benzo[d][1,2,3]triazol-5-yl)-3-(3-(((*R)-5,5-dioxido-7,7a,8,9,10,11-hexahydro-6H-dipyrido[2,1-d:2′,3′-f][1,2,5]thiadiazepin-6-yl)methyl)-4-methylphenyl)propanoic Acid]	180
0.127	Cc1ccc([C@H](CC(=O)O)c2ccn3c(C(F)(F)F)nnc3c2C)cc1CN1CC2(CC2)Oc2ncccc2S1(=O)=O (single isomer, unassigned) [Example 7, (*S)-3-(3-((1′,1′-Dioxidospiro[cyclopropane-1,4′-pyrido[2,3-b][1,4,5]oxathiazepin]-2′(3′H)-yl)methyl)-4-methylphenyl)-3-(8-methyl-3-(trifluoromethyl)-[1,2,4]triazolo[4,3-a]pyridin-7-yl)propanoic Acid]	74
< 1	Cc1ccc([C@H](CC(=O)O)c2ccn3c(C(F)(F)F)nnc3c2C)cc1CN1C[C@H]2CCCCN2c2ncc(C#N)cc2S1(=O)=O (single isomer, unassigned) [Example 9, (*S)-3-(3-(((*R)-3-Cyano-5,5-dioxido-7,7a,8,9,10,11-hexahydro-6H-dipyrido[2,1-d:2′,3′-f][1,2,5]thiadiazepin-6-yl)methyl)-4-methylphenyl)-3-(8-methyl-3-(trifluoromethyl)-[1,2,4]triazolo[4,3-a]pyridin-7-yl)propanoic Acid]	3.8
0.079	Cc1ccc([C@@H](CC(=O)O)c2ccc3c(nnn3CC3CC3)c2C)cc1CN1C[C@]2(C)CCCN2c2ncccc2S1(=O)=O (single isomer, unassigned) [Example 13, (*R)-3-(1-(Cyclopropylmethyl)-4-methyl-1H-benzo[d][1,2,3]triazol-5-yl)-3-(4-methyl-3-(((*S)-7a-methyl-5,5-dioxido-7a,8,9,10-tetrahydropyrido[2,3-f]pyrrolo[2,1-d][1,2,5]thiadiazepin-6(7H)-yl)methyl)phenyl)propanoic Acid]	37.8
838	CCn1nnc2c(C)c([C@@H](c3ccc(C)c(CN4CC5(CCOCC5)Oc5ncccc5S4(=O)=O)c3)C(C)(C)C(=O)O)ccc21 (single isomer, unassigned) [Example 16, (*R)-3-(3-((1′,1′-Dioxido-2,3,5,6-tetrahydrospiro[pyran-4,4′-pyrido[2,3-b][1,4,5]oxathiazepin]-2′(3′H)-yl)methyl)-4-methylphenyl)-3-(1-ethyl-4-methyl-1H-benzo[d][1,2,3]triazol-5-yl)-2,2-dimethylpropanoic Acid]	233
0.273	CCn1nnc2c(C)c([C@@H](CC(=O)O)c3ccc(C)c(CN4C[C@H]5CCCN5c5ncccc5S4(=O)=O)c3)ccc21 (single isomer, unassigned) [Example 21, (*S)-3-(3-(((R)-5,5-Dioxido-7a,8,9,10-tetrahydropyrido[2,3-f]pyrrolo[2,1-d][1,2,5]thiadiazepin-6(7H)-yl)methyl)-4-methylphenyl)-3-(1-ethyl-4-methyl-1H-benzo[d][1,2,3]triazol-5-yl)propanoic Acid]	28
0.264	Cc1ccc([C@H](CC(=O)O)c2ccc3c(nnn3C3CC3)c2C)cc1CN1C[C@@H]2COCCN2c2ncccc2S1(=O)=O (single isomer, unassigned) [Example 24, (*S)-3-(1-Cyclopropyl-4-methyl-1H-benzo[d][1,2,3]triazol-5-yl)-3-(3-(((*R)-5,5-dioxido-7a,8,10,11-tetrahydro-[1,4]oxazino[3,4-d]pyrido[2,3-f][1,2,5]thiadiazepin-6(7H)-yl)methyl)-4-methylphenyl)propanoic Acid]	4.1
< 1	Cc1ccc([C@@H](CC(=O)O)c2ccn3c(C(F)F)nnc3c2C)cc1CN1C[C@H]2CCCCN2c2ncc(C#N)cc2S1(=O)=O (single isomer, unassigned) [Example 30, (*R)-3-(3-(((*R)-3-Cyano-5,5-dioxido-7,7a,8,9,10,11-hexahydro-6H-dipyrido[2,1-d:2′,3′-f][1,2,5]thiadiazepin-6-yl)methyl)-4-methylphenyl)-3-(3-(difluoromethyl)-8-methyl-[1,2,4]triazolo[4,3-a]pyridin-7-yl)propanoic Acid]	73.7
